Test results published in patent publication US9303005B2, “Use of dibenzofuranone derivatives to inhibit kinases” (priority 2010, dated 2016).

Columns and labels:
[1] = tested on: CK2; conditions: prior-art value; read-out: IC50 (CK2, literature); cited from earlier work
[2] = prior art; lactam ring hydrolysis; cited from earlier work
[3] = biological target: CK2 holoenzyme (Homo sapiens (Human), UniProt P68400); assay: capillary electrophoretic CK2 inhibition/activity test (E-peptide substrate); format: biochemical; conditions: capillary electrophoretic test, ten minutes pre-incubation
Procedure: To this end, the capillary electrophoretic CK2 inhibition test using E-peptide as the substrate was carried out. […] Ten concentrations between 0.0001 μM and 10 μM were investigated for this purpose.
Kuckländer (Kuckländer and Töberich, 1982; Bollig, 2007).

Sequence of CK2 holoenzyme (P68400 whole entry): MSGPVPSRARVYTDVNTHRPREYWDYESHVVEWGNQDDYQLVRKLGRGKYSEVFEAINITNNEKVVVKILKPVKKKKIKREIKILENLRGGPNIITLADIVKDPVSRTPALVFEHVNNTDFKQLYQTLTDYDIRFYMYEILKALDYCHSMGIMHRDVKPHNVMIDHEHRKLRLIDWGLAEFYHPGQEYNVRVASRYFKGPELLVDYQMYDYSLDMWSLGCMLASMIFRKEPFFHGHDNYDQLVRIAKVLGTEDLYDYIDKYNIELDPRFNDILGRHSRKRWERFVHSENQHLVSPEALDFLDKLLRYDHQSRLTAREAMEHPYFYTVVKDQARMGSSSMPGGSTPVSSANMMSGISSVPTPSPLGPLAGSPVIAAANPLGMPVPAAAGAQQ
Sequence of CK2 holoenzyme (P67870 whole entry partner): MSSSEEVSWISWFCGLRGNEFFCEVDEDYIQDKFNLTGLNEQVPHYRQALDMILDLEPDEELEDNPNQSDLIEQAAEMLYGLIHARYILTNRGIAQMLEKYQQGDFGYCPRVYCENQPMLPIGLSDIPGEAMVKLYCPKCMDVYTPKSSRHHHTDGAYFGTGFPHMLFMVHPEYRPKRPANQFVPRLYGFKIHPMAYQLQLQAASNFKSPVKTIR

Row | Compound | IC50 [1] [µM] | also measured
1 | CC1=C(Br)COc2c1ccc(O)c2Br [DBC, 3,8-dibromo-7-hydroxy-4-methyl-chromene] | 0.1 | –
2 | C=CC1=C(C)c2cc3[n-]c(cc4nc(cc5[n-]c(cc1n2)c(C)c5C=C)C(C)=C4CCC(=O)O)c(CCC(=O)O)c3C.[Fe+2] [Haematin] | 0.55 | –
3 | O=C(O)Cc1c2ccccc2n2c1[nH]c(=O)c1ccccc12 [IQA, (5-oxo-5,6-dihydroindolo[1,2-a]quinazolin-7-yl) acetic acid] | – | stability in aqueous media [2]: unstable in aqueous media
4 | O=c1c2c(O)cccc2oc2c([N+](=O)[O-])ccc(O)c12 [MNX, 1,8-dihydro-4-nitroxanthen-9-one] | 0.4 | –
5 | CCOC(=O)c1oc2c(Cl)c(Cl)c(OC(C)=O)c(C#N)c2c1N [Ric138] | – | IC50 [3]: 2.4 µM
